# Reference: patent publication US9624233B2, “Compounds for treating pruritic conditions” (priority 2015, dated 2017)
# Experiments:
# Details in all cases: 2.5E−05M
# α2C (h) = biological target: T1, α2C (h) (Homo sapiens, UniProt P18825); experiment: Abuse liability binding screen, α2C (h) (antagonist radioligand)
# T1 sequence (P18825 1-462): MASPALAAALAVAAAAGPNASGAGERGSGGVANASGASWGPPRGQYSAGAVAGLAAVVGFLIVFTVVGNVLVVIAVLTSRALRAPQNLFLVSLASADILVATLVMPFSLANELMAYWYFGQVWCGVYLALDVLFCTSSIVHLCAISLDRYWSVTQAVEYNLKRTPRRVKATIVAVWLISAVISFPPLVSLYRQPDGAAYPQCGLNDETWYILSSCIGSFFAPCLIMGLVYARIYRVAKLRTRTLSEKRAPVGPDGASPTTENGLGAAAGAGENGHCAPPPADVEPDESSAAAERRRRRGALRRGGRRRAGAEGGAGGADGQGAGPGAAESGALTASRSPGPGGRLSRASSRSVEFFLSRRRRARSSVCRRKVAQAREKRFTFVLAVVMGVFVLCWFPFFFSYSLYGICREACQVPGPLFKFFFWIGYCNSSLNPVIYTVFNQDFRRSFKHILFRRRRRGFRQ
# Experimental: (§1) […]. The abuse liability screen included 44 targets (receptors, transporters, on gated-channel systems) related to the dopamine, norepinephrine, serotonin, gamma-aminobutyric acid (GABA), acetylcholine, N-methyl-D-aspartate (NMDA) cannabinoid and opioid neurotransmitter systems as recommended in FDA Draft guidance on Assessment of Abuse Potential of Drugs, January 2010.
# (§2) Compound binding was calculated as a % inhibition of the binding of a radioactively labeled ligand specific for each target.
# (§3) Results showing an inhibition or stimulation higher than 50% are considered to represent significant effects of the test compounds.
# B2 (h) = B2 (h) (Homo sapiens, UniProt P07550); experiment: Abuse liability binding screen, B2 (h) (agonist radioligand)
# Chain of B2 (h) (P07550 whole entry): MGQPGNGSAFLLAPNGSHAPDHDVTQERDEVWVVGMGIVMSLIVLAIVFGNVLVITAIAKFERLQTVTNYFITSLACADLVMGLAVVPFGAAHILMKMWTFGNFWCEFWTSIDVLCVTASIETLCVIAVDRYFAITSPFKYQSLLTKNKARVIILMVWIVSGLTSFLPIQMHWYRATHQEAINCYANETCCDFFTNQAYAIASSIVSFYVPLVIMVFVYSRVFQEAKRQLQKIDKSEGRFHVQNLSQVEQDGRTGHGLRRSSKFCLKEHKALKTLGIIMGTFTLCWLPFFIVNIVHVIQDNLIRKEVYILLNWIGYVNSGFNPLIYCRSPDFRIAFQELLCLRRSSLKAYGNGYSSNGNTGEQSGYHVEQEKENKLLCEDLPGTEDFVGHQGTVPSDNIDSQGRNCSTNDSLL
# Experimental: as §1, §2, §3
# CB1 (h) = CB1 (h) (Homo sapiens, UniProt P21554); experiment: Abuse liability binding screen, CB1 (h) (agonist radioligand)
# Chain of CB1 (h) (P21554 whole entry): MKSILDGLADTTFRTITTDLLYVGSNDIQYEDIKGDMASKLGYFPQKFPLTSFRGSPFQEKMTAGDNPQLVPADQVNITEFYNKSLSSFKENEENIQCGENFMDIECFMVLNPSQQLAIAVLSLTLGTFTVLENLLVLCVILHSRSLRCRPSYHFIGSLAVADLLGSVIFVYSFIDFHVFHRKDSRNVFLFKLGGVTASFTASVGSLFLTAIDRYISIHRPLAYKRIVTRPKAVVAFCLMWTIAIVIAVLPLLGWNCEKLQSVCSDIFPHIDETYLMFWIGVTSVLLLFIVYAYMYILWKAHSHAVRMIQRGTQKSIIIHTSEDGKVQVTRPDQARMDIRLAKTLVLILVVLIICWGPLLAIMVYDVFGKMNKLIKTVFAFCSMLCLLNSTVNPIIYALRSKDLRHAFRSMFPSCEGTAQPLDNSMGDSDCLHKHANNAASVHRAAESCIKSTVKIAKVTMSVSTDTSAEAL
# Experimental: as §1, §2, §3
# D2S (h) = D2S (h) (Homo sapiens, UniProt P14416); experiment: Abuse liability binding screen, D2S (h) (antagonist radioligand)
# Chain of D2S (h) (P14416 1-414 isoform P14416-2): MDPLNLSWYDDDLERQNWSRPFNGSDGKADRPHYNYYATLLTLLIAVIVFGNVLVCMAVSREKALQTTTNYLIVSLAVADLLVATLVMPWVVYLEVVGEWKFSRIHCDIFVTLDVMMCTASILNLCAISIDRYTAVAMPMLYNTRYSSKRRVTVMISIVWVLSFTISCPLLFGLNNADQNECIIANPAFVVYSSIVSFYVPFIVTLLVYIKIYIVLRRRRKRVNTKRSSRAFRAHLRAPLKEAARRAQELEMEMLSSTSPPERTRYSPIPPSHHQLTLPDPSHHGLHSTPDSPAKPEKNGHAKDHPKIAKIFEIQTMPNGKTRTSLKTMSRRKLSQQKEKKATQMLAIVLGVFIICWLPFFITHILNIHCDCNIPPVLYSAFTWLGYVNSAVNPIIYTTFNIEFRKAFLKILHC
# Experimental: as §2
# NMDA = experiment: Abuse liability binding screen, NMDA (antagonist radioligand)
# Experimental: as §2
# M2 (h) = biological target: T2, M2 (h) (Homo sapiens, UniProt P08172); experiment: Abuse liability binding screen, M2 (h) (antagonist radioligand)
# T2 sequence (P08172 1-466): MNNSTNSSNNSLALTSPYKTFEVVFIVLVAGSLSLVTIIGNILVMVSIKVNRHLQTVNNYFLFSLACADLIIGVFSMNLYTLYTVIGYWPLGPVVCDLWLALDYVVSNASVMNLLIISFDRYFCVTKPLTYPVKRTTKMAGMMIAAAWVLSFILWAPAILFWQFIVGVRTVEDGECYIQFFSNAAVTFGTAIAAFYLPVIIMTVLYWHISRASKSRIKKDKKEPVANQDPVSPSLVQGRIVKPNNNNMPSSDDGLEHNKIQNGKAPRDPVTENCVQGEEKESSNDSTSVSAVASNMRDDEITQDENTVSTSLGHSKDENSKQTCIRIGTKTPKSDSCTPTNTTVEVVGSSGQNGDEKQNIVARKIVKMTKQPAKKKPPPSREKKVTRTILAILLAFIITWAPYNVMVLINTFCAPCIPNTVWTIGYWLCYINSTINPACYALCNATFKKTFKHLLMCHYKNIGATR
# Experimental: as §1, §2, §3
# N neuronal α7 (h) = N neuronal α7 (h) (Homo sapiens, UniProt P36544); experiment: Abuse liability binding screen, N neuronal α7 (h) (antagonist radioligand)
# Chain of N neuronal α7 (h) (P36544 23-502): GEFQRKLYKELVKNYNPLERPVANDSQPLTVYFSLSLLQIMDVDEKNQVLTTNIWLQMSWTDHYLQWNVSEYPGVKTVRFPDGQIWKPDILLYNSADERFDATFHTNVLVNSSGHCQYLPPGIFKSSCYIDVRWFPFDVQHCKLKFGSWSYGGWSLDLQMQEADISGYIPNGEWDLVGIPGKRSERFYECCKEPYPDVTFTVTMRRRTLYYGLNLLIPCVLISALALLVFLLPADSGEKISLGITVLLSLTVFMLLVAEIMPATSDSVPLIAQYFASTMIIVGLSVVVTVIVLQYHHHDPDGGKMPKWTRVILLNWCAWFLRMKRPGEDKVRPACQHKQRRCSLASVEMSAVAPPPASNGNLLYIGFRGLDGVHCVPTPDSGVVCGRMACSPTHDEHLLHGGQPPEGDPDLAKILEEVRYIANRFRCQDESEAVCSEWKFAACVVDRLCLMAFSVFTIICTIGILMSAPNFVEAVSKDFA
# Experimental: as §1, §2, §3
# δ2 (DOP) (h) = δ2 (DOP) (h) (Homo sapiens, UniProt P41143); experiment: Binding screen and IC50 determination, δ2 (DOP) (h) (agonist radioligand)
# Chain of δ2 (DOP) (h) (P41143 whole entry): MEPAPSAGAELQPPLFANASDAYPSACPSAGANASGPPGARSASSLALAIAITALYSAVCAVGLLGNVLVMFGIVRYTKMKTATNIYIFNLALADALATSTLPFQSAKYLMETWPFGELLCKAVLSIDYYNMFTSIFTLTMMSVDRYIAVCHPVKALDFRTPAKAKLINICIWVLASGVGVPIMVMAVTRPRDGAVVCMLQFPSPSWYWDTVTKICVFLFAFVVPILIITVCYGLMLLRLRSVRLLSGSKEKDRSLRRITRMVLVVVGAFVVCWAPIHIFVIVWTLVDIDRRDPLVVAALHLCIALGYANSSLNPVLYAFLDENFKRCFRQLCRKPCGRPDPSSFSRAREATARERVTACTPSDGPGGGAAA
# Experimental: as §2
# OX2 (h) = biological target: T3, OX2 (h) (Homo sapiens, UniProt O43614); experiment: Abuse liability binding screen, OX2 (h) (agonist radioligand)
# T3 sequence (O43614 1-444): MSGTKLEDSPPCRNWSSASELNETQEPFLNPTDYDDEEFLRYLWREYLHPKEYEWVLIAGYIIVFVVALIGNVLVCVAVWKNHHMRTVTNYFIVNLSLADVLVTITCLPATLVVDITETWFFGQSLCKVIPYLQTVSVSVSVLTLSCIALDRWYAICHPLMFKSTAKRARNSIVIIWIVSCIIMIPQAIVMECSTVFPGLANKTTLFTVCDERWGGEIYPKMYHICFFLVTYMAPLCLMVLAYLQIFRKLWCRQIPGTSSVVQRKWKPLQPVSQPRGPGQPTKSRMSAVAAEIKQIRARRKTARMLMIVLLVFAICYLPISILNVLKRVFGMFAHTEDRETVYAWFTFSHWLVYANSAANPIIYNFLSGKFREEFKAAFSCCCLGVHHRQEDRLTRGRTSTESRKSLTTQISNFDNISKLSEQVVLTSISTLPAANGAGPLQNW
# Experimental: as §1, §2, §3
# 5-HT2c (h) = biological target: T4, 5-HT2c (h) (Homo sapiens, UniProt P28335); experiment: Abuse liability binding screen, 5-HT2c (h) (agonist radioligand)
# T4 sequence (P28335 33-458): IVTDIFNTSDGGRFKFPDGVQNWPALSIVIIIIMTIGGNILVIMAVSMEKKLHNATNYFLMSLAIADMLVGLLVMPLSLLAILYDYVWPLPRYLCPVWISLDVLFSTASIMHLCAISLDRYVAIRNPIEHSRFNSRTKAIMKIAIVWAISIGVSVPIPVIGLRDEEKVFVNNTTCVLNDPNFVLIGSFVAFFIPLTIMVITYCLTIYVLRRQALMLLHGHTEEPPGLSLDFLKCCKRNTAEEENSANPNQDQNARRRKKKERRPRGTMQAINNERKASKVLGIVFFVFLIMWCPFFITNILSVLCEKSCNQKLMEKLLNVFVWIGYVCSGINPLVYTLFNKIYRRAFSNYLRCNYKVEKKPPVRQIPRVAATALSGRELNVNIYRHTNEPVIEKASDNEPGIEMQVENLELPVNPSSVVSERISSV
# Experimental: as §2
structure (smiles),measurement,setting,value
"O=C(O)[C@H]1O[C@@H](Oc2ccc3c4c2O[C@H]2[C@@H](O)CC[C@@]5(O)[C@@H](C3)N(CC3CCC3)CC[C@]425)[C@H](O)[C@@H](O)[C@@H]1O [Compound M5, nalbuphine-3-beta-D-glucuronid]",% Inhibition of Control Specific Binding 1st,α2C (h),12.1%
same,% Inhibition of Control Specific Binding 2nd,α2C (h),6.5%
same,% Inhibition of Control Specific Binding Mean,α2C (h),9.3%
same,% Inhibition of Control Specific Binding 1st,B2 (h),−4.6%
same,% Inhibition of Control Specific Binding 2nd,B2 (h),15.3%
same,% Inhibition of Control Specific Binding Mean,B2 (h),5.4%
same,% Inhibition of Control Specific Binding 1st,CB1 (h),−2.9%
same,% Inhibition of Control Specific Binding 2nd,CB1 (h),12.9%
same,% Inhibition of Control Specific Binding Mean,CB1 (h),5.0%
same,% Inhibition of Control Specific Binding 1st,D2S (h),−1.6%
same,% Inhibition of Control Specific Binding 2nd,D2S (h),7.2%
same,% Inhibition of Control Specific Binding Mean,D2S (h),2.8%
same,% Inhibition of Control Specific Binding 1st,NMDA,−15.9%
same,% Inhibition of Control Specific Binding 2nd,NMDA,−14.7%
same,% Inhibition of Control Specific Binding 1st,M2 (h),−11.1%
same,% Inhibition of Control Specific Binding 2nd,M2 (h),7.6%
same,% Inhibition of Control Specific Binding Mean,M2 (h),−1.8%
same,% Inhibition of Control Specific Binding 1st,N neuronal α7 (h),−6.0%
same,% Inhibition of Control Specific Binding 2nd,N neuronal α7 (h),−0.4%
same,% Inhibition of Control Specific Binding Mean,N neuronal α7 (h),−3.2%
same,% Inhibition of Control Specific Binding 1st,δ2 (DOP) (h),13.9%
same,% Inhibition of Control Specific Binding 2nd,δ2 (DOP) (h),18.2%
same,% Inhibition of Control Specific Binding 1st,OX2 (h),−3.5%
same,% Inhibition of Control Specific Binding 2nd,OX2 (h),−2.4%
same,% Inhibition of Control Specific Binding Mean,OX2 (h),−2.9%
same,% Inhibition of Control Specific Binding 1st,5-HT2c (h),−7.9%
same,% Inhibition of Control Specific Binding 2nd,5-HT2c (h),−8.2%
same,% Inhibition of Control Specific Binding Mean,5-HT2c (h),−8.0%
